From patent publication US20100144714A1, “DERIVATIVES OF IMIDAZO PYRIMIDO AND DIAZEPINE PYRIMIDINE-DIONE, AND USE THEREOF AS A DRUG” (SOCIETE DE CONSEILS DE RECHERCHES ET D'APPLICATIONS …, priority 2006, published 2010)

Target: T1, human CB2 receptors (Homo sapiens, UniProt P34972)
T1 construct: expressed in transfected cells
Test: Affinity for the human CB2 cannabinoid receptors: inhibition of [3H]-CP55940 binding to transfected CHO-K1 cell membranes
Details: [3H]-CP55940 (1 nM), CHO-K1 membranes expressing human CB2; Cheng-Prusoff corrected; x = Ki below 50 nM
Description: The affinity of the compounds of the present invention for the different sub-types of cannabinoid receptors was measured according to procedures analogous to those described hereafter for the human CB2 receptor.
Study of the Affinity of the Compounds for the Human CB2 Cannabinoid Receptors
The affinity of the compounds of the invention for the human CB2 receptors is determined by measuring the inhibition of the binding of [^3H]-CP55940 to transfected CHO-K1 cell membrane preparations.
The CHO-K1 cells expressing the human CB2 receptors in a stable fashion are cultured in an RPMI 1640 medium containing 10% foetal calf serum, 2 mM of glutamine, 100 U/ml of penicillin, 0.1 mg/ml of streptomycin and 0.5 mg/ml of G418. The cells are collected with 0.5 mM of EDTA and centrifuged at 500 g for 5 minutes at 4° C. The pellet is re-suspended in phosphate buffered saline medium (PBS) and centrifuged at 500 g for 5 minutes at 4° C. The pellet is re-suspended in a Tris 50 mM buffer medium at pH 7.4 and centrifuged at 500 g for 5 minutes at 4° C. The cells are lysed by sonication and centrifuged at 39,000 g for 10 minutes at 4° C. The pellet is re-suspended in the Tris 50 mM buffer medium at pH 7.4 and centrifuged at 50,000 g for 10 minutes at 4° C. The membranes obtained in this last pellet are stored at −80° C.
Measurement of the competitive inhibition of the binding of the [^3H]-CP55940 to the CB2 receptors is carried out in duplicate using 96-well polypropylene plates. The cell membranes (10 μg of proteins/well) are incubated with the [^3H]-CP55940 (1 nM) for 60 minutes at 25° C. in a Tris-HCl 50 mM buffer medium, pH 7.4, comprising 0.1% bovine serum albumin (BSA), 5 mM of MgCl2, and 50 μg/ml of bacitracin.
The bound [^3H]-CP55940 is separated from the free [^3H]-CP55940 by filtration through GF/C glass fibre filter plates (Unifilter, Packard) pre-impregnated with 0.1% polyethylenimine (P.E.I.), using a Filtermate 196 (Packard). The filters are washed with Tris-HCl 50 mM buffer, pH 7.4 at 0-4° C. and the radioactivity present is determined using a counter (Packard Top Count).
The specific binding is obtained by subtracting the non-specific binding (determined in the presence of 0.1 μM of WIN55212-2 from the total binding). The data are analyzed by computer-assisted non-linear regression (MDL). For each test, a Cheng-Prusoff correction is made in order to convert the IC50 to the inhibition constant, Ki.
where [L] is the concentration of the radioligand used in the test and Kd is the radioligand equilibrium dissociation constant.

T1 sequence (P34972 whole entry): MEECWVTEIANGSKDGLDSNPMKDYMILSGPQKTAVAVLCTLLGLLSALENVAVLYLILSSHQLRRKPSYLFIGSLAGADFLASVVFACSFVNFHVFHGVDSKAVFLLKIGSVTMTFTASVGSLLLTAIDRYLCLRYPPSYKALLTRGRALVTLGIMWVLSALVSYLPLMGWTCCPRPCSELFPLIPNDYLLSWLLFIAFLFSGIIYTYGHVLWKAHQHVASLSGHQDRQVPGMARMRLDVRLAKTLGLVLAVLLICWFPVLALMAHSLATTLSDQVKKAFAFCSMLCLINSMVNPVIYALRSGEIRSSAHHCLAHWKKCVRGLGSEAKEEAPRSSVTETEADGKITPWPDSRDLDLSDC

Ki, < 50 nM:
CN1CCN(c2ccc(CN3C(=O)C(C4CCCCC4)n4c3nc3ccccc3c4=O)cc2)CC1 (stereo not shown) [Example 5], CN1CCN(c2ccc(CN3C(=O)CC(C4CCCCC4)n4c3nc3ccccc3c4=O)cc2)CC1 (stereo not shown) [Example 45], CN1CCN(c2ccc(CN3C(=O)C(c4ccc5ccccc5c4)n4c3nc3ccccc3c4=O)cc2)CC1 (stereo not shown) [Example 8], CN1CCN(c2ccc(CN3C(=O)CC(C)(C)n4c3nc3ccccc3c4=O)cc2)CC1 [Example 35], CN1CCN(c2ccc(CN3C(=O)C(C)(C)Cn4c3nc3ccccc3c4=O)cc2)CC1 [Example 37], CCCCC1(CCCC)C(=O)N(Cc2ccc(N3CCN(C)CC3)cc2)c2nc3ccccc3c(=O)n21 [Example 31], CN1CCN(c2ccc(CN3C(=O)CC(Cc4ccccc4)n4c3nc3ccccc3c4=O)cc2)CC1 (stereo not shown) [Example 46], CN1CCN(c2ccc(CN3C(=O)C(c4ccc(-c5ccccc5)cc4)n4c3nc3ccccc3c4=O)cc2)CC1 (stereo not shown) [Example 2], CN1CCN(c2ccc(CN3C(=O)C4(Cc5ccccc5C4)n4c3nc3ccccc3c4=O)cc2)CC1 [Example 17], CC(C)C[C@H]1CC(=O)N(Cc2ccc(N3CCN(C)CC3)cc2)c2nc3ccccc3c(=O)n21 [Example 38], CC(C)CC1CC(=O)N(Cc2ccc(N3CCN(C)CC3)cc2)c2nc3ccccc3c(=O)n21 (stereo not shown) [Example 43], CN1CCN(c2ccc(CN3C(=O)C(Cc4ccccc4)n4c3nc3ccccc3c4=O)cc2)CC1 (stereo not shown) [Example 12], CN1CCN(c2ccc(CN3C(=O)C(CC4CCCCC4)n4c3nc3ccccc3c4=O)cc2)CC1 (stereo not shown) [Example 1], CN1CCN(c2ccc(CN3C(=O)CC(CCc4ccccc4)n4c3nc3ccccc3c4=O)cc2)CC1 (stereo not shown) [Example 48], CN1CCN(c2ccc(CN3C(=O)C(CCC4CCCCC4)n4c3nc3ccccc3c4=O)cc2)CC1 (stereo not shown) [Example 4], CN1CCN(c2ccc(CN3C(=O)CC(c4ccccc4)n4c3nc3ccccc3c4=O)cc2)CC1 (stereo not shown) [Example 44]
